In brackets after ≈: the same amount, converted by molar mass. Read-outs that look alike come from different tables or passages of the source.
Columns and labels:
[1] = system: Aspergillus fumigatus ATCC 16424; assay: Broth microdilution antifungal susceptibility (MIC/MFC); format: cell-based; conditions: Aspergillus fumigatus; for MIC: ATCC16424, 48 h
Description: (§1) One reference each of the following species was used for their in vitro susceptibility to β-nitrostyrene in this study: Staphylococcus aureus ATCC 29213, Staphylococcus epidermidis ATCC 14990, Escherichia coli ATCC 25922, Pseudomonas aeruginosa ATCC 27853, Candida albicans ATCC 90028, Candida glabrata ATCC 90030, Aspergillus fumigatus ATCC 16424 and Aspergillus niger ATCC 16404. These strains were procured from the American Type Culture Collection (ATCC, Manassas, VA, USA).
(§2) The antibacterial and antifungal activities of the β-nitrostyrenes were performed by broth microdilution methods as per the guidelines of Clinical and Laboratory Standard Institute (Wayne, [1998], [2008a],[b],[c]) by using Mueller-Hinton broth (MHB; Becton-Dickinson, Cockeysville, MD, USA) supplemented with calcium (25 mg/L) and magnesium (12.5 mg/L) for bacterial strains while as RPMI 1640 medium with L-glutamine and without sodium bicarbonate, buffered to pH 7.0 with 0.165 M 3-(N-morpholino) propanesulfonic acid (MOPS; both from Sigma) was used for fungal strains. Stock solutions were prepared in 100% dimethyl sulfoxide (DMSO; Sigma; distilled water was used for ciprofloxacin), with a final DMSO concentration of 1% (vol. per vol.) and two-fold serial dilutions were prepared in media in amounts of 100 μL per well in 96-well U-bottom microtiter plates (Tarsons, Kolkata, India) to yield twice the final concentration required for testing, which ranged from 64 to 0.12 μg/mL for β-nitrostyrenes and 16 to 0.03 μg/mL for ciprofloxacin as well as amphotericin B. Stock inoculum suspensions of the bacteria, Candida species and Aspergillus species were prepared in sterile normal saline (0.85%) containing 0.05% polysorbate 20 (NST) from overnight (3 to 5-day old for Aspergillus species) strains grown on Trypticase soy agar (TSA; Becton-Dickinson) and potato dextrose agar (Difco Laboratories, Detroit, MI, USA) respectively at 35°C. Inocula were verified for each assay by plating onto agar plates for colony enumeration. These suspensions were further diluted in the respective test medium and a 100 μl volume of this diluted inoculum was added to each well of the plate, resulting in a final inoculum concentration of approximately 5 × 10^5 CFU/mL for bacter1ia, (Wayne, [2008a]) approximately 2.5 × 10^4 CFU/ml for Candida species (Pfaller et al., [2004]) while as 0.4 × 10^4 to 5 × 10^4 CFU/mL for Aspergillus species (Wayne, [2008c]). Untreated growth control, vehicle control (DMSO) and sterility control wells were included for each isolate tested. Ciprofloxacin and amphotericin B served as the standard drug controls for bacterial and fungal strains, respectively. The microtiter plates were incubated at 35°C for 24 h for bacterial strains and 48 h for fungal strains. The plates were read visually and the minimum inhibitory concentration (MIC) was defined as the lowest concentration of test sample that prevented visible growth with respect to the growth control.
(§3) The minimum bactericidal concentration (MBC) and minimum fungicidal concentration (MFC) were determined by plating 100 μl volumes on agar plates from the wells showing no visible growth (clear MIC well). The plates were incubated as described above in MIC measurements. […] All experiments were conducted twice in duplicates on separate occasions with freshly prepared inoculums and stock solutions.

[2] = system: Candida albicans ATCC 90028; assay: as above; format: cell-based; conditions: Candida albicans; for MIC: ATCC90028, 48 h
Description: as §1, §2, §3

[3] = system: Aspergillus niger ATCC 16404; assay: as above; format: cell-based; conditions: Aspergillus niger; for MIC: ATCC16404, 48 h
Description: as §1, §2, §3

[4] = system: Candida glabrata ATCC 90030; assay: as above; format: cell-based; conditions: Nakaseomyces glabratus; for MIC: ATCC90030, 48 h
Description: as §1, §2, §3

[5] = system: Staphylococcus epidermidis ATCC 14990; assay: Broth microdilution antibacterial susceptibility (MIC/MBC); format: cell-based; conditions: Staphylococcus epidermidis; for MIC: ATCC14990, 24 h
Description: as §1, §2, §3

[6] = system: Staphylococcus aureus ATCC 29213; assay: as above; format: cell-based; conditions: Staphylococcus aureus; for MIC: ATCC29213, 24 h
Description: as §1, §2, §3

[7] = system: Pseudomonas aeruginosa ATCC 27853; assay: as above; format: cell-based; conditions: Pseudomonas aeruginosa; for MIC: ATCC27853, 24 h
Description: as §1, §2, §3

[8] = system: Escherichia coli ATCC 25922; assay: as above; format: cell-based; conditions: Escherichia coli; for MIC: ATCC25922, 24 h
Description: as §1, §2, §3

[9] = system: L. donovani promastigotes; assay: Anti-leishmanial screening at 100 μM, parasite viability by microscopy; format: cell-based, Leishmania donovani; conditions: 100 μM, 72 h, phase contrast microscope
Experimental: (§4) L. donovani parasites (MHOM/IN/83/AG83) were maintained in vivo in BALB/c mice. Promastigotes were routinely cultured at 22°C in medium M199 supplemented with 10% heat inactivated fetal bovine serum (FBS, HiMedia Laboratories, Mumbai, India), penicillin 100 (IU/ml), streptomycin (100 μg/ml). Log phase promastigotes were sub-cultured every 72–96 h, the inoculum being 2 × 10^6 cells/ml (Afrin et al., [2002]).
Nitrostyrine series were screened for their antileishmanial activity against L. donovani promastigotes in vitro. Promastigotes of L. donovani (2 × 10^6 cells/mL) in M199 medium were incubated at 22°C for 72 h with each compound at a concentration of 100 μM. Amphotericin B (AmB) served as reference drug, 0.2% DMSO was used as solvent control. Parasites with media alone were taken as control. Parasite viability was determined microscopically after 72 h (Islamuddin et al., [2014b]).

[10] = system: L. donovani promastigotes; assay: Dose-dependent anti-promastigote activity, IC50 and IC90; format: cell-based, Leishmania donovani; conditions: L. donovani promastigotes
Experimental: as §4
AmB was used as a standard antileishmanial drug control. The cell viability was evaluated by microscopically and the mean percentage viability was calculated as follows: Mean cell number of treated parasites / Mean cell number of untreated parasites × 100. The 50 and 90% inhibitory concentration (IC50 and IC90) i.e., the concentration of drugs that decreased the cell growth by 50 and 90% respectively was determined by graphical extrapolation after plotting the graph of % viability vs. concentration of drug (Islamuddin et al., [2014b]).
In vitro antileishmanial activity was expressed as IC50 by linear regression analysis. Values are mean ± SE of samples in triplicate from at least three independent experiments. Statistical analysis was performed using ANOVA followed by Dunnett's test. ^*P < 0.05, ^**P < 0.01 and ^***P < 0.001 compared with the untreated control group were considered significant.

COc1ccc(/C=C(\C)[N+](=O)[O-])cc1OC [Compound 23, 1,2-dimethoxy-4-((E)-2-nitroprop-1-enyl) benzene] showed an MIC ([1]; broth microdilution, 35°C, 48 h, read-out: MIC, Af ATCC 16424) of 16 µg/mL (≈ 71.7 µM), an MFC ([1]; ATCC16424, ≥99.9% reduction of original inoculum, read-out: MFC, Af ATCC 16424) of 16 µg/mL (≈ 71.7 µM) and an MIC ([2]; broth microdilution, 35°C, 48 h, read-out: MIC, Ca ATCC 90028) of 32 µg/mL (≈ 143 µM). It also gave an MFC ([2]; ATCC90028, ≥99.9% reduction of original inoculum, read-out: MFC, Ca ATCC 90028) of 32 µg/mL (≈ 143 µM), an MIC ([3]; broth microdilution, 35°C, 48 h, read-out: MIC, An ATCC 16404) of 8 µg/mL (≈ 35.8 µM) and an MFC ([3]; ATCC16404, ≥99.9% reduction of original inoculum, read-out: MFC, An ATCC 16404) of 8 µg/mL (≈ 35.8 µM). The MIC ([4]; broth microdilution, 35°C, 48 h, read-out: MIC, Cg ATCC 90030) was 4 µg/mL (≈ 17.9 µM), the MFC ([4]; ATCC90030, ≥99.9% reduction of original inoculum, read-out: MFC, Cg ATCC 90030) was 4 µg/mL (≈ 17.9 µM) and the MIC ([5]; broth microdilution, 35°C, 24 h, read-out: MIC, Se ATCC 14990) was 8 µg/mL (≈ 35.8 µM). It also gave an MBC ([5]; ATCC14990, ≥99.9% reduction of original inoculum, read-out: MBC, Se ATCC 14990) of 8 µg/mL (≈ 35.8 µM), an MIC ([6]; broth microdilution, 35°C, 24 h, read-out: MIC, Sa ATCC 29213) of 8 µg/mL (≈ 35.8 µM) and an MBC ([6]; ATCC29213, ≥99.9% reduction of original inoculum, read-out: MBC, Sa ATCC 29213) of 16 µg/mL (≈ 71.7 µM). For the same molecule, the MIC ([7]; broth microdilution, 35°C, 24 h, read-out: MIC, Pa ATCC 27853) was greater than 64 µg/mL, the MBC ([7]; ATCC27853, ≥99.9% reduction of original inoculum, read-out: MBC, Pa ATCC 27853) was greater than 64 µg/mL and the MIC ([8]; broth microdilution, 35°C, 24 h, read-out: MIC, Ec ATCC 25922) was greater than 64 µg/mL. For the same molecule, the MBC ([8]; ATCC25922, ≥99.9% reduction of original inoculum, read-out: MBC, Ec ATCC 25922) was greater than 64 µg/mL, the melting point was 70 to 72 °C and the “Parasite viability after treatment” value [9] was “All the parasites were found to be dead”. For the same molecule, the “Anti-leishmanial activity, in words (compounds with IC50 determined)” value [10] was “moderate activity”.
C/C(=C\c1ccc([N+](=O)[O-])cc1)[N+](=O)[O-] [Compound 8, 1-nitro-4-((E)-2-nitroprop-1-enyl) benzene] showed an MIC ([1]; read-out: MIC, Af ATCC 16424, broth microdilution, 35°C, 48 h) of 4 µg/mL (≈ 19.2 µM), an MFC ([1]; ATCC16424, read-out: MFC, Af ATCC 16424) of 4 µg/mL (≈ 19.2 µM) and an MIC ([2]; read-out: MIC, Ca ATCC 90028, broth microdilution, 35°C, 48 h) of 4 µg/mL (≈ 19.2 µM). For the same molecule, the MFC ([2]; ATCC90028, read-out: MFC, Ca ATCC 90028) was 4 µg/mL (≈ 19.2 µM), the MIC ([3]; read-out: MIC, An ATCC 16404, broth microdilution, 35°C, 48 h) was 2 µg/mL (≈ 9.61 µM) and the MFC ([3]; ATCC16404, read-out: MFC, An ATCC 16404) was 2 µg/mL (≈ 9.61 µM). For the same molecule, the MIC ([4]; read-out: MIC, Cg ATCC 90030, broth microdilution, 35°C, 48 h) was 1 µg/mL (≈ 4.8 µM), the MFC ([4]; ATCC90030, read-out: MFC, Cg ATCC 90030) was 1 µg/mL (≈ 4.8 µM) and the MIC ([5]; read-out: MIC, Se ATCC 14990, broth microdilution, 35°C, 24 h) was 16 µg/mL (≈ 76.9 µM). For the same molecule, the MBC ([5]; ATCC14990, read-out: MBC, Se ATCC 14990) was 16 µg/mL (≈ 76.9 µM), the MIC ([6]; read-out: MIC, Sa ATCC 29213, broth microdilution, 35°C, 24 h) was 16 µg/mL (≈ 76.9 µM) and the MBC ([6]; ATCC29213, read-out: MBC, Sa ATCC 29213) was 32 µg/mL (≈ 154 µM). For the same molecule, the MIC ([7]; read-out: MIC, Pa ATCC 27853, broth microdilution, 35°C, 24 h) was 64 µg/mL (≈ 307 µM), the MBC ([7]; ATCC27853, read-out: MBC, Pa ATCC 27853) was greater than 64 µg/mL and the MIC ([8]; read-out: MIC, Ec ATCC 25922, broth microdilution, 35°C, 24 h) was 64 µg/mL (≈ 307 µM). For the same molecule, the MBC ([8]; ATCC25922, read-out: MBC, Ec ATCC 25922) was greater than 64 µg/mL, the melting point was 114 to 116 °C and the “Parasite viability after treatment” value [9] was “All the parasites were found to be dead”.

From PMC5007854, “β-Nitrostyrenes as Potential Anti-leishmanial Agents” (Frontiers in Microbiology, 2016)
